Literature values as cited in patent publication US20210220455A1, “COMPOSITIONS AND METHODS FOR PERSONALIZED NEOPLASIA VACCINES” (The Broad Institute, Inc., priority 2013, published 2021).

Key:
[1] = system: ovarian carcinoma patients; details: cited from earlier work
healthy human volunteers = details: cited from earlier work

## Polyinosinic-Polycytidylic Acid-poly-L-lysine Carboxymethylcellulose [poly-ICLC]
[1]; 1.4 mg poly-ICLC and Montanide added to OLP vs OLP alone or OLP and Montanide
  generation of NY-ESO-1-specific CD4+ and CD8+ T-cell and antibody responses: markedly enhanced
[1]; poly-ICLC with NY-ESO-1 peptide vaccine and Montanide
  patients showing induction of CD4+ and CD8+ T cell and antibody responses to the peptide: > 90%
Healthy human volunteers; 8 volunteers, one single s.c. administration vs 4 placebo subjects
  differentially expressed genes versus placebo: up to 212 genes
Healthy human volunteers; human, in vivo
  safety in human volunteer study: safe
